# Results: ChEMBL document CHEMBL1127160, “Phenylalkyl ketones as potent reversible inhibitors of interleukin-1 converting enzyme” (Bioorg Med Chem Lett, 1993)
# Target: T1, Caspase-1 (Homo sapiens, UniProt P29466)
# T1 sequence (P29466 whole entry): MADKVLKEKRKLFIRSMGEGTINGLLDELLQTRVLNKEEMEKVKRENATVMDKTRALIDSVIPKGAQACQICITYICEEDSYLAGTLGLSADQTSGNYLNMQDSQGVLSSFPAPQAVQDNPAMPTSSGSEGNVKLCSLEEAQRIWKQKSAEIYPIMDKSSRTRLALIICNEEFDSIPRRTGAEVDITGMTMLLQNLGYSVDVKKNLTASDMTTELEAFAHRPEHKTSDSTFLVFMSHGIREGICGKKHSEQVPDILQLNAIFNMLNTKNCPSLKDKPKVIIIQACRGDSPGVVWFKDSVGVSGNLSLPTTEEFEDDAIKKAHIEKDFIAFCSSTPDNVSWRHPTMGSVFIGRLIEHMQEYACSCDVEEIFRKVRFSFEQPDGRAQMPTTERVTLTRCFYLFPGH
# Experiment: The compound was tested for its inhibitory activity against IL-1 beta converting enzyme
row,Structure (SMILES),Ki [µM]
1,CC(=O)N[C@@H](Cc1ccc(O)cc1)C(=O)N[C@H](C(=O)N[C@@H](C)C(=O)N[C@@H](CC(=O)O)C(=O)CCCCc1ccccc1)C(C)C,0.042
2,"CC(=O)N[C@@H](Cc1ccc(O)cc1)C(=O)NC(C(=O)N[C@@H](C)C(=O)NC(CC(=O)O)C(C)=O)C(C)C (single isomer, unassigned)",> 10
3,CCC(=O)[C@H](CC(=O)O)NC(=O)[C@H](C)NC(=O)[C@@H](NC(=O)[C@H](Cc1ccc(O)cc1)NC(C)=O)C(C)C,4
4,CC(C)[C@H](NC(=O)CCc1ccccc1)C(=O)N[C@@H](C)C(=O)N[C@@H](CC(=O)O)C(=O)CCCc1ccccc1,0.1
5,CC(=O)N[C@@H](Cc1ccc(O)cc1)C(=O)N[C@H](C(=O)N[C@@H](C)C(=O)N[C@@H](CC(=O)O)C(=O)CCCCCc1ccccc1)C(C)C,0.0185
6,CC(=O)N[C@@H](Cc1ccc(O)cc1)C(=O)N[C@H](C(=O)N[C@@H](C)C(=O)N[C@@H](CC(=O)O)C(=O)C1CCCCC1)C(C)C,> 100
7,CC(=O)N[C@@H](Cc1ccc(O)cc1)C(=O)N[C@H](C(=O)N[C@@H](C)C(=O)N[C@@H](CC(=O)O)C(=O)c1ccccc1)C(C)C (stereo in doubt; 7c),> 100
8,CC(C)[C@H](NC(=O)CCc1ccccc1)C(=O)N[C@@H](C)C(=O)N[C@@H](CC(=O)O)C(=O)Cc1ccccc1,3.1
9,CC(C)[C@H](NC(=O)CCc1ccccc1)C(=O)N[C@@H](C)C(=O)N[C@@H](CC(=O)O)C(=O)CCc1ccccc1,0.61
10,CC(=O)N[C@@H](Cc1ccc(O)cc1)C(=O)N[C@H](C(=O)N[C@@H](C)C(=O)N[C@@H](CC(=O)O)C(=O)c1ccccc1)C(C)C (stereo in doubt),10
